From publication PMC10584170, “Machine learning-based phenotypic imaging to characterise the targetable biology of Plasmodium falciparum male gametocytes for the development of transmission-blocking antimalarials” (PLOS Pathogens, 2023)
Read-outs that look alike come from different tables or passages of the source.

How the values were obtained:
[1] = test system: P. falciparum male gametocytes; experiment: P. falciparum Dual Gamete Formation Assay (PfDGFA), male readout (exflagellation); format: cell-based, Plasmodium falciparum NF54; conditions: for Selectivity Ratio M: HepG2 Tox50 versus male IC50; for inhibition at 2 µM / IC50: Plasmodium falciparum; for IC50: PfDGFA, 24 h incubation with gametocytes before induction, exflagellation readout, read-out: Male IC50; for Activity: hit = >50% inhibition in male or female readout in at least 3 replicates, 0 = no class assigned
Description: (§1) P. falciparum NF54 (originally isolated from an imported malaria case in the Netherlands in the 1980s; BEI Resources, cat. No. MRA-1000) strain asexual parasites were maintained between 0.3–5% parasitaemia by regular passage in complete culture medium (RPMI supplemented with 25 mM HEPES, 50 μg ml^−1 hypoxanthine, 4.8 g l^−1 NaHCO3, 2mM L-glutamine, 5% pooled type AB serum, 0.5% Albumax II (Gibco)) at 4% haematocrit in washed whole blood (National Blood and Transfusion Service or Centro de Transfusiones de la Comunidad de Madrid CTCM) under a 1% O2/3% CO2/96% N2 environment. Gametocytes were induced by seeding culture flasks at 2% parasitaemia/4% haematocrit and subjecting them to daily medium changes for 14 days whilst maintaining a temperature of 37°C at all times. On Day 14, the maturity of gametocytes was assessed by quantifying male gametogenesis (exflagellation). A 20 μl sample of gametocyte culture was mixed with equal volume of ookinete medium (complete culture medium supplemented with 0.1 μM xanthurenic acid) at room temperature and transferred to a haemocytometer. After 20 min at room temperature, exflagellation was accurately quantified as described in Delves et al. 2016 [17].
(§2) The Pf DGFA was performed as described in Delves et al. 2016 [17]. […] Plates were then incubated for 24 h at 37°C in a humidified box under a 1% O2/3% CO2/96% N2 gas mix. Gametogenesis was triggered by addition of 10 μl per well of ookinete medium + 0.27 μg ml^-1 Cy3-labelled anti-Pfs25 antibody. Plates were incubated on a metal block at 4°C for 4 min to ensure even cooling, then 28°C for a further 4 min. Exflagellation was recorded by capturing 10 frames over 1 s under brightfield illumination using a x4 objective with a 1.5x zoom (effectively x6) attached to an automated Nikon Ti fluorescence microscope. After recording exflagellation, plates were incubated for a further 24 h in the dark at 28°C to ensure maximal expression of Pfs25 by female gametes. The plates were then returned to the microscope and female gametes imaged at x6 using fluorescence microscopy.
(§3) Exflagellation centres and female gametes were quantified using custom image analysis pipelines developed within ICY Bioimage Analysis (https://icy.bioimageanalysis.org/).

[2] = test system: P. falciparum female gametocytes; experiment: P. falciparum Dual Gamete Formation Assay (PfDGFA), female readout (Pfs25-positive female gametes); format: cell-based, Plasmodium falciparum NF54; conditions: for Selectivity ratio F: HepG2 Tox50 versus female IC50; for inhibition at 2 µM / IC50: Plasmodium falciparum; for IC50: PfDGFA, 24 h incubation with gametocytes before induction, female gamete readout, read-out: Female IC50
Description: as §1, §2, §3

[3] = 2µM, 24h preincubation with gametocytes prior to induction of gametogenesis, average of replicates
[4] = 2µM, 24h preincubation with gametocytes prior to induction of gametogenesis, replicate R1
[5] = 2µM, 24h preincubation with gametocytes prior to induction of gametogenesis, replicate R3
[6] = 2µM, 24h preincubation with gametocytes prior to induction of gametogenesis, replicate R4
[7] = 2µM, 24h preincubation, hits selected on >50% inhibition in the male readout across replicates
[8] = PfDGFA at 2µM, 24h preincubation
[9] = 2µM, 24h preincubation, hits selected on >50% inhibition in the female readout across replicates
[10] = PfDGFA at 2µM, 24h preincubation with gametocytes prior to induction of gametogenesis, replicate R1
[11] = PfDGFA at 2µM, 24h preincubation with gametocytes prior to induction of gametogenesis, replicate R4
[12] = PfDGFA at 2µM, 24h preincubation, average of replicates
[13] = PfDGFA at 2µM, 24h preincubation with gametocytes prior to induction of gametogenesis, replicate R3

Structure (SMILES) | Average inhibition male (%) [1, 3] [%] | % inhibition male (individual replicates) R1 [1, 4] [%] | % inhibition male (individual replicates) R3 [1, 5] [%] | % inhibition male (individual replicates) R4 [1, 6] [%] | HitlevelM [1, 7] | Activity [1, 8] | Average inhibition female (%) [2, 3] [%] | % inhibition female (individual replicates) R1 [2, 4] [%] | % inhibition female (individual replicates) R3 [2, 5] [%] | % inhibition female (individual replicates) R4 [2, 6] [%] | HitlevelF [2, 9] | % inhibition male (individual replicates) R1 [1, 10] [%] | % inhibition male (individual replicates) R4 [1, 11] [%] | Average inhibition male (%) [1, 12] [%] | % inhibition female (individual replicates) R1 [2, 10] [%] | % inhibition female (individual replicates) R3 [2, 13] [%] | % inhibition female (individual replicates) R4 [2, 11] [%] | Average inhibition female (%) [2, 12] [%] | other results
FC(F)(F)c1cccc(NC(=S)NN=Cc2ccccn2)c1 [TCMDC-123509] |  |  |  |  |  |  |  |  |  |  |  |  |  |  |  |  |  |  | Selectivity Ratio M [1]: 143.09; inhibition at 2 µM ([1]; 2µM, 24h preincubation with gametocytes, average of replicates, read-out: Average inhibition male (%)): 94.6%; inhibition at 2 µM ([1]; 2µM, 24h preincubation with gametocytes, replicate R1, read-out: % inhibition male (individual replicates) R1): 103%; inhibition at 2 µM ([1]; 2µM, 24h preincubation with gametocytes, replicate R2, read-out: % inhibition male (individual replicates) R2): 94.6%; inhibition at 2 µM ([1]; 2µM, 24h preincubation with gametocytes, replicate R3, read-out: % inhibition male (individual replicates) R3): 102%; inhibition at 2 µM ([1]; 2µM, 24h preincubation with gametocytes, replicate R4, read-out: % inhibition male (individual replicates) R4): 79.6%; IC50 [1]: 700 nM; Selectivity ratio F [2]: 142.25; inhibition at 2 µM ([2]; 2µM, 24h preincubation with gametocytes, average of replicates, read-out: Average inhibition female (%)): 50.5%; inhibition at 2 µM ([2]; 2µM, 24h preincubation with gametocytes, replicate R1, read-out: % inhibition female (individual replicates) R1): 35.3%; inhibition at 2 µM ([2]; 2µM, 24h preincubation with gametocytes, replicate R2, read-out: % inhibition female (individual replicates) R2): 76.8%; inhibition at 2 µM ([2]; 2µM, 24h preincubation with gametocytes, replicate R3, read-out: % inhibition female (individual replicates) R3): 45%; inhibition at 2 µM ([2]; 2µM, 24h preincubation with gametocytes, replicate R4, read-out: % inhibition female (individual replicates) R4): 45%; IC50 [2]: 700 nM
CC1(C)N=C(N)N=C(N)N1c1ccc(Oc2ccc(Cl)cc2)c(Cl)c1 [TCMDC-123522] | -4.1 | 6.1 | -10.9 | -16.5 | 0 | 0 | 4.9 | 11.0 | 16.4 | -0.18 | 0 |  |  |  |  |  |  |  | 
Cc1cc(N2CCN(C)CC2)nc2ccc(NC(=O)Cc3cccc(C(F)(F)F)c3)cc12 [TCMDC-123590] |  |  |  |  |  |  |  |  |  |  |  | 6.9 | -7.6 | 3.5 | 1.4 | 3.7 | -0.7 | 2.2 | 
Cc1ccc(-c2nc3cc(NC(=O)c4ccc([N+](=O)[O-])o4)ccc3o2)cc1Cl [TCMDC-123657] | 5.4 | 3.2 | -3.8 | 12.9 | 0 | 0 | 15.9 | 10.9 | 11.0 | 33.8 | 0 |  |  |  |  |  |  |  | 
CC(=O)c1cccc(S(=O)(=O)NCCCNc2nc3cc(C)cc(C)c3cc2C#N)c1 [TCMDC-123734] | -13.5 | -6.4 | -3.8 | -42.5 | 0 | 0 | 6.2 | 1.3 | -13.6 | 33.9 | 0 |  |  |  |  |  |  |  | 
COc1ccc(C2CC(c3cccs3)=NN2C(=O)c2ccccc2)cc1OC (stereo not drawn) [TCMDC-123755] |  |  |  |  |  |  |  |  |  |  |  | -16.5 | 27.6 | 0.438 | 2.3 | -20.6 | -7.2 | -3.5 | % inhibition male (individual replicates) R3 [1, 13]: -10.3%
OC1CCN(c2cc(-c3ccccn3)nc(-c3ccccn3)n2)CC1 [TCMDC-123786] |  |  |  |  |  |  |  |  |  |  |  | -14.8 | -28.8 | -7.4 | -1.4 | -6.8 | 3.7 | 0.215 | 
Cc1cc(C(=O)OCC(=O)Nc2c(C)n(C)n(-c3ccccc3)c2=O)c(C)n1-c1ccc(F)cc1 [TCMDC-123794] |  |  |  |  |  |  |  |  |  |  |  |  |  |  |  |  |  |  | HitlevelM ([1]; 2µM, 24h preincubation, number of replicates with >50% inhibition in the male readout): 3; Selectivity Ratio M [1]: 52.65; inhibition at 2 µM ([1]; 2µM, 24h preincubation with gametocytes prior to induction of gametogenesis, average of replicates, read-out: Average inhibition male (%)): 57.2%; inhibition at 2 µM ([1]; 2µM, 24h preincubation with gametocytes prior to induction of gametogenesis, replicate R1, read-out: % inhibition male (individual replicates) R1): 63.3%; inhibition at 2 µM ([1]; 2µM, 24h preincubation with gametocytes prior to induction of gametogenesis, replicate R2, read-out: % inhibition male (individual replicates) R2): 40.1%; inhibition at 2 µM ([1]; 2µM, 24h preincubation with gametocytes prior to induction of gametogenesis, replicate R3, read-out: % inhibition male (individual replicates) R3): 55.8%; inhibition at 2 µM ([1]; 2µM, 24h preincubation with gametocytes prior to induction of gametogenesis, replicate R4, read-out: % inhibition male (individual replicates) R4): 69.6%; IC50 [1]: 1900 nM; HitlevelF ([2]; 2µM, 24h preincubation, number of replicates with >50% inhibition in the female readout): 2; Selectivity ratio F [2]: 69.69; inhibition at 2 µM ([2]; 2µM, 24h preincubation with gametocytes prior to induction of gametogenesis, average of replicates, read-out: Average inhibition female (%)): 48.8%; inhibition at 2 µM ([2]; 2µM, 24h preincubation with gametocytes prior to induction of gametogenesis, replicate R1, read-out: % inhibition female (individual replicates) R1): 29.7%; inhibition at 2 µM ([2]; 2µM, 24h preincubation with gametocytes prior to induction of gametogenesis, replicate R2, read-out: % inhibition female (individual replicates) R2): 52.6%; inhibition at 2 µM ([2]; 2µM, 24h preincubation with gametocytes prior to induction of gametogenesis, replicate R3, read-out: % inhibition female (individual replicates) R3): 40.8%; inhibition at 2 µM ([2]; 2µM, 24h preincubation with gametocytes prior to induction of gametogenesis, replicate R4, read-out: % inhibition female (individual replicates) R4): 72.3%; IC50 [2]: 1430 nM
N#CCSc1nnc(-c2ccccc2)c2ccccc12 [TCMDC-123867] |  |  |  |  |  |  |  |  |  |  |  | -3.0 | -3.8 | 1.3 | 9.7 | -27.1 | 6.9 | -4.3 | % inhibition male (individual replicates) R3 [1, 13]: 10.5%
